PubChem BioAssay AID602215 (Sanford-Burnham Center for Chemical Genomics, 2012)
Activity calls are given as the source filed them.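 Rule for the calls: active = IC50 of 20 µM or lower; inactive = the rest.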

Tested on: HL-1 cardiomyocytes, H2O2 injury, ATP luminescence, 2 h
Experiment: H2O2-induced HL-1 cell death suppression – ATP luminescence, dose response (AID 602215);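 note: potency is for protection so actives raise ATP signal against peroxide damage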

Structure (SMILES) | IC50
CCOC(=O)C1CCN(c2cc3c(cc2NC(=O)c2ccccc2)n(C)c(=O)n3C)CC1 | > 79 µM (inactive)
COc1ccc(-c2csc(NC(=O)c3cccc(N4C(=O)CCC4=O)c3)n2)cc1OC | > 79 µM (inactive)
CCOc1ccc(C(C(=O)NCC2CCCO2)N(C(=O)c2snc(C(N)=O)c2N)c2ccccc2F)cc1 (centres undefined) | 10.4 µM
COC(=O)c1cc2ccccn2c2c(C(=O)OC)c(C(=O)OC)cc1-2 | > 79 µM (inactive)
COc1cc(-c2cc(C(=O)Nc3ccccc3N3CCOCC3)c3ccccc3n2)cc(OC)c1OC | 4.24 µM
COc1cc(-c2cc(NC(C)=O)c3ncc(-c4cc(OC)c(OC)c(OC)c4)n3c2)cc(OC)c1OC | 1.48 µM
CC(C)(C)OC(=O)C[C@@H]1C/C=C\C[C@@H](CC(=O)N[C@@H](CO)Cc2ccccc2)C(=O)NC[C@@H](c2ccccc2)OC1=O | > 79 µM (inactive)
CC(C)=NNc1cnnc2ccc([N+](=O)[O-])cc12 | > 79 µM (inactive)
CC(=O)c1cccc(Nc2nc3ccccc3n3cnnc23)c1 | > 79 µM (inactive)
O=C(Nc1cccc(NC(=O)c2ccc([N+](=O)[O-])o2)c1)c1ccco1 | > 79 µM (inactive)
O=C1OCCN1C(=O)[C@H]1[C@H](c2ccc([N+](=O)[O-])cc2)C(c2ccc(F)cc2)=NN1c1ccc(Br)cc1 | > 79 µM (inactive)
COc1ccc(C(=O)O/N=C(/c2ccccc2)c2ccncc2)cc1OC | > 79 µM (inactive)
CC12C=CC(=O)CC1CCC1C2CCC2(C)C(O)C(O)CC12 (centres undefined) | > 79 µM (inactive)
COc1ccc(OC)c(/C=N/NC(=O)c2cc3c(OC)c(OC)ccc3[nH]2)c1 | 1.82 µM
COc1ccc(C(=O)Nc2cccc(NC(=O)c3ccc(OC)c(OC)c3)n2)cc1OC | > 79 µM (inactive)
CC(=O)Nc1cccc(-c2cc(NC=O)c3ncc(-c4ccc(C(C)=O)cc4)n3c2)c1 | 6.11 µM
CC(=O)Nc1ccc(S(=O)(=O)N(Cc2cccnc2)Cc2cc3ccccc3[nH]c2=O)cc1 | 11.7 µM

Structure (SMILES) | IC50
COc1ccccc1NC(=O)c1cc(-c2ccc(OC)c(OC)c2)nc2ccccc12 | > 79 µM (inactive)
CC(C)(C)NC(=O)c1cc(NC(=O)c2cccs2)cc(NC(=O)c2cccs2)c1 | > 79 µM (inactive)
COc1ccccc1CN(C(=O)CNC(=O)c1ccco1)C(C(=O)NCC1CCCO1)c1ccccc1 (centres undefined) | > 79 µM (inactive)
COc1nc(N/N=C/c2cc3c(cc2Br)OCO3)nc(N2CCOCC2)n1 | > 79 µM (inactive)
COc1ccc(-c2ccc3c(c2)S(=O)(=O)c2cccc(C(=O)N4CCN(c5c(Cl)cncc5Cl)CC4)c2C3=O)cc1OC | > 79 µM (inactive)
CCOC(=O)c1ccc(NC(=O)c2nc[nH]c2C(=O)NCCCCCNC(=O)OC(C)(C)C)cc1 | > 79 µM (inactive)
COc1cc(-c2cc(C(=O)Nc3cccc(C(C)=O)c3)c3ccccc3n2)cc(OC)c1OC | 3.99 µM
CS(=O)(=O)c1ccc(-c2cnc3c(NC=O)cc(-c4ccsc4)cn23)cc1 | 8.73 µM
CC(C)OCCCNC(=O)CCC(=O)NNc1nc2ccccc2c2nc(-c3ccccc3)nn12 | > 79 µM (inactive)
CC(=O)Nc1ccc(Nc2nc(-c3sc(NC(C)=O)nc3C)cs2)cc1 | 20.1 µM (inactive)
CCc1nc2ccc(C(=O)Nc3cc(-c4ccccc4)ccc3OC)cn2c1N(C)Cc1nccs1 | > 79 µM (inactive)
COc1ccc2[nH]c(=O)c(CN(Cc3cccnc3)S(=O)(=O)c3ccccc3F)cc2c1 | > 79 µM (inactive)
Cc1ccc(C(C(=O)NCc2ccccc2)N(Cc2ccco2)C(=O)c2snc(C(N)=O)c2N)o1 (centres undefined) | > 79 µM (inactive)
CCOC(=O)C(Cc1ccc(NC(=O)/C(=C/c2ccc(OC(C)=O)cc2)NC(C)=O)cc1)N1C(=O)c2ccccc2C1=O (centres undefined) | 32.5 µM (inactive)
N#C/C(=C\Nc1ccc2c(c1)OCCO2)c1nc2ccccc2[nH]1 | > 79 µM (inactive)
CN(C(=O)c1sc2nc(N3CCOCC3)c3c(c2c1N)CCCC3)c1ccccc1 | 8.63 µM
COc1ccc2c(c1OC)C(=O)N1c3ccccc3C(=O)N(c3ccccc3)C21 (centres undefined) | > 79 µM (inactive)
